Measurements taken from US12390467B2, “Necroptosis inducers or autophagy inhibitors or a combination thereof” (The University of Toledo, priority 2018, dated 2025).
Like-named read-outs stand apart in the source and are kept apart here.

Assays:
Assay type in all cases: cell-based
[1] = test system: ZR-75-1 (non-TNBC cell line); test: MTT cell viability assay, ZR-75-1; settings: read-out: IC50 ± SD, ZR-75-1
Procedure: (§1) The following cancer and non-cancer cell lines were used in the initial cytotoxicity screening of the TPH104 compounds: triple negative breast cancer (TNBC): MDA-MB468, MDA-MB 231, and BT-20; non-TNBC: MCF-7 and ZR-75-1; ovarian: Ov2008; prostate: DU145; colon: HCT-116, S1, and LOVO; lung: H460; normal kidney: HEK-293; normal breast: HMEC; and normal colon: CRL-1459. All cells were cultured in Dulbecco's modified Eagle medium (DMEM), supplemented with 10% fetal bovine serum (FBS), and 1% penicillin/streptomycin (P/S). Cells were allowed to grow as adherent monolayers in T25 flasks in a humidified incubator with 5% CO2 at 37° C. for a period of 24 h, unless otherwise specified for certain experiments.
(§2) The MTT assay was used to determine the cytotoxicity of all of the compounds. Briefly, in a 96-well flat-bottom cell culture plate, the cells were seeded at a density between 3-5×10^3 cells/well (180 μl in each well) and incubated for 24 h (a hemocytometer was used for cell counting). The next day, the cells were incubated with different concentrations of the nine compounds (0, 0.1, 0.3, 1, 3, 10, 30, and 100 μM) for 72 h. After 72 h, 20 μl of 5 mg/ml of 3-(4,5-dimethylthiazol-2-yl)-2,5-diphenyltetrazolium bromide (MTT) was added to the plate and incubated with the cells for 3 h at 37° C. In this experiment, the living cells will reduce the soluble MTT dye to non-soluble purple formazan crystals. Following incubation, the media containing MTT removed via suction and 100 μL of 100% dimethyl sulfoxide (DMSO) was added to dissolve the formazan crystals. Subsequently, the plate was shaken for 2 minutes and the absorbance was measured at a wavelength of 570 nm using a SpectraMax iD3 Multi-Mode Microplate Reader (Molecular Devices, Sunnyvale, CA). The IC50 values of each compound were calculated and used to determine the selectivity ratio (IC50 in normal cells/IC50 in cancer cells) of each compound as previously described. Based on the results obtained from these experiments, the compound TPH104, which had the lowest IC50 value, was selected for further experiments.

[2] = test system: BT-20 (TNBC cell line); test: MTT cell viability assay, BT-20
Procedure: as §1, §2

[3] = test system: BT-20 cells; test: incuCyte live cell imaging of proliferation; settings: 0.1, 1, 3, and 10 μM
From the text: FIG. 4: Representative images of the anti-proliferative effect of TPH104 at different concentrations and different time points in BT-20 cells. The time lapse images were taken using an incuCyte live cell imaging instrument (10×). **p<0.01, ***p<0.001, ****p<0.0001 compared to the control.

[4] = test system: MDA-MB468 and MDA-MB231; test: Cell cycle analysis (PI, flow cytometry); settings: 0.5, 1, 2 μM, 12 h
Procedure: The cell cycle analysis was performed to evaluate the effect of TPH104 on the normal cell cycle in the TNBC cell lines (i.e. MDA-MB 468, MDA-MB231 and BT-20). Cells were plated in a 6-well plate at a suitable density as previously described and incubated overnight to allow for cell attachment. The following day, cells were incubated with different TPH104 concentrations (0.5, 1, or 2 μM) or vehicle for 12 h. The cells were harvested by trypsinization and collected in individual test tubes. Subsequently, cells were washed 3× with ice cold PBS and fixed with 70% ethanol for 30 minutes. Following fixation, cells were again washed 3× with intermittent centrifugation at 2000 rpm for 5 minutes and incubated with 100 μl RNAse (from a 100 μg/ml stock) (to ensure that only DNA was stained). Two hundred μl of PI (from a 50 μg/ml stock solution) was added to each test tube and cells were stain cells for at least 15 minutes on ice. Finally, a FACS Calibur flow cytometer (BD Biosciences, San Jose, CA) was used to detect the distribution of the cells following incubation with vehicle or TPH104. FlowJo v10.2 software from FlowJo LLC (Ashland, OR) was used for data analysis.

[5] = test system: MDA-MB231 cells; test: Scratch/wound healing assay
Procedure: MDA-MB231 cells were seeded in a 6 well-plate (10-20,000 cells/well) and incubated at 37° C. until they reached 60-80% confluence and formed a complete monolayer, as previously reported. Subsequently, a wound was created by scratching the monolayer with a 10 μl sterile pipette tip. The floating cells were washed away with sterile PBS, making the wound area clear and completely empty. Immediately following monolayer scratching, TPH104 (0.5, 1, 2, 5 or 10 μM) or vehicle were added to the cell culture media (2 ml total in each well) and incubated at 37° C. for 36 h. The wound closure was monitored over time by taking pictures after 0 h, 12 h, 24 h, and 36 h of incubation using an EVOS-FLC microscope. Image J software NIH, Bethesda, MD, USA) was used to determine the areas of the wound at different time points as previously reported.

[6] = test system: BT-20 cells; test: Acridine orange assay; settings: TPH104, 12 h, vs vehicle
Procedure: The cell-permeant, nucleic acid binding dye, acridine orange (AO) was used to assess the effect of TPH104 on the activation of lysosomes. A 10 μg/ml stock solution was prepared using PBS. The TNBC cells were seeded in a 6-well plate as described in the cell cycle assay. After overnight incubation, cells were incubated with TPH104 (1, 2, 5 μM), vehicle or 20 uM of chloroquine (CQ, […]) for 12 h. The media was removed via suction and 1 ml of AO, diluted in 1:1000 in PBS, was added to each well and the plate was incubated for an additional 30 minutes. Cells were washed three times in PBS to remove excess dye. The cells from each well were captured from randomly selected fields using a fluorescent microscope (EVOS-FLC cell imaging system, Thermofisher scientific) at 40× to determine the AO fluorescence intensity which is positively correlated to lysosomal activation.

[7] = test system: ABCG2 transporter in H460/MX20, S1M180 and HEK293/R2 cells; test: Western blot, ABCG2 transporter expression; settings: concentration dependent
From the text: FIG. 25: TPH104 reverses multidrug resistance by downregulating the expression of ABCG2 transporter in a concentration dependent fashion in drug resistant small cell lung cancer cells (H460/MX20), colon cancer cells (S1M180) and ABCG2-transfected cells (HEK293/R2). The bar graph represents the quantified values of the ratio of ABCG2/β-actin. The data represent mean±SEM of three independent western blots. *p<0.05, **p<0.01 compared to control.

In the case of `COc1ccc(O)c(/C=N/Nc2ncnc3scc(-c4ccc(C)cc4)c23)c1` [TPH104], the IC50 ([1]; 72 h) is reported as 8.56 ± 1.95 µM, the IC50 ([1]; Homo sapiens, ZR-75-1, 72 h) is reported as 8.6 µM and the “percent cell survival, TPH104 + rapamycin vs TPH104 only” value ([2]; + 100 nM rapamycin) is reported as “significant increase”. For the same compound, the “percent BT-20 survival, TPH104 + 3-methyladenine” value ([2]; + 0.5 mM) was “no significant change”, the IC50 ([2]; Homo sapiens, BT-20, MTT, 72 h, TNBC) was 0.29 µM and the BT-20 cell proliferation [3] was “concentration-dependent and time-dependent decrease”. For the same compound, the “level of cells arrested in the S phase” value [4] was “significantly increased”, the “number of cells in the G1 phase” value [4] was “significant reduction” and the death of cells ([5]; 10 μM, after 12 h of incubation) was 70%. For the same compound, the mobility and migration ([5]; 0.5, 1, 2, 5, and 10 μM) was “significantly decreased”, the wound closure ([5]; 1, 2, 5, and 10 μM) was “significantly reduced” and the “fluorescence intensity of the acridine orange (AO) dye” value [6] was “did not show a significant increase”. For the same compound, the “expression of ABCG2 transporter” value [7] was “downregulated”.
